Data published in patent publication US7544666B2, “NAP derivatives” (Industrial Technology Research Institute, priority 2005, dated 2009).

Experiments:
[1] = Stability in Hanks' balanced salt solution (HBSS); assay type: physicochemical; details: 37° C., relative to initial conc. in HBSS = 100.00
In short: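 Compounds at 500 μM initial concentration were incubated 4 h at 37 °C in HBSS alone or on the apical side of Caco-2 monolayers (cultured 18–26 days, TEER over 350 Ω×cm^2). Apical and basolateral levels were quantified by reverse-phase HPLC at 210 nm against the initial concentration.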

[2] = test system: scopolamine-induced amnesia rats; assay: Morris water maze in scopolamine-induced amnesia rats; assay type: in vivo, rat; details: 0.25 mg/kg subcutaneous, 5 min after scopolamine 1 mg/kg i.p.; FIG. 11
Procedure: Scopolamine-induced amnesia […] were used in combination of Morris water maze, a memory and behavior analysis system, to assess the in vivo effects of the NAP derivative BMEC-NAP0701 and NAP.
Sprague-Dawley male rats with body weight of 220-250 g obtained from the National Laboratory Animal Center, Taiwan, were caged in an air-conditioned housing with a temperature of 23±1° C. and kept on an alternating 12-hour light and 12-hour dark schedule with sufficient feed and water. […]
Morris Water Maze was performed with a water maze device containing a stainless pool with a size of 160 cm in diameter, 50 cm in height, and 15 mm in thickness of the wall and a platform with a size of 11 cm in diameter, and 22 cm in height. […] The swimming time and track were recorded by VEDEOMEX-V video tracing system, video recorder, and monitor (Columbus Instruments) and analyzed by Water Maze Program (Columbus Instruments). […]
Late of the third day: Two to four hours after the third day training, the platform was removed from the pool. The trained rats were separately sent to quadrant I and the swimming track was recorded for 60 sec. The time spent in finding the original platform was also recorded. […]
Early of the fifth day: The platform was placed in the quadrant II and submerged beneath water level about 1 cm. The rats were separately sent to quadrant I and the time spent in finding the platform was recorded. […]

Conc. after 4-hour in HBSS [1]: 99.21
Structure (SMILES): CC[C@H](C)[C@H](NC(=O)[C@H](CO)NC(=O)[C@@H](NC(=O)[C@@H]1CCCN1C(=O)[C@H](C)NC(=O)[C@@H](N)CC(N)=O)C(C)C)C(=O)N1CCC[C@H]1C(=O)N[C@@H](CCC(N)=O)C(=O)O [BMEC-NAP, H-NAPVSIPQ-OH, reference compound]
memory improving effect (time spent in finding the platform vs scopolamine-induced rats) [2]: memory improving effect in vivo
